Assays:
[1] = tested on: IL-2/anti-CD3 stimulated IFNγ in human PBMCs; test: Inhibition of IL-2/anti-CD3 stimulated IFNγ in human PBMCs; type: cell-based
Protocol: The potency of the test compound for inhibition of interleukin-2 (IL-2)/anti-CD3 stimulated interferon gamma (IFNγ) was measured in human peripheral blood mononuclear cells (PBMCs) isolated from human whole blood (Stanford Blood Center). Because IL-2 signals through JAK, this assay provides a measure of JAK cellular potency.
(1) Human peripheral blood mononuclear cells (PBMC) were isolated from human whole blood of healthy donors using a ficoll gradient. Cells were cultured in a 37° C., 5% CO2 humidified incubator in RPMI (Life Technologies) supplemented with 10% Heat Inactivated Fetal Bovine Serum (FBS, Life Technologies), 2 mM Glutamax (Life Technologies), 25 mM HEPES (Life Technologies) and 1X Pen/Strep (Life
Technologies). Cells were seeded at 200,000 cells/well in media (50 μL) and cultured for 1 h. Compounds were serially diluted in DMSO and then diluted another 500-fold (to a 2× final assay concentration) in media. […]
(2) After cytokine stimulation, cells were centrifuged at 500 g for 5 min and supernatants removed and frozen at −80° C. To determine the inhibitory potency of the test compound in response to IL-^2/anti-CD3, supernatant IFNγ concentrations were measured via ELISA (R&D Systems). IC50 values were determined from analysis of the inhibition curves of concentration of IFNγ vs compound concentration. Data are expressed as pIC50 (negative decadic logarithm IC50) values.

[2] = tested on: IL-5 mediated survival of human eosinophils; test: IL-5 mediated eosinophil survival assay; type: cell-based
Protocol: The potency of the test compound for IL-5 mediated eosinophil survival was measured in human eosinophils isolated from human whole blood (AllCells). Because IL-5 signals through JAK, this assay provides a measure of JAK cellular potency.
Human eosinophils were isolated from fresh human whole blood (AllCells) of healthy donors. Blood was mixed with 4.5% Dextran (Sigma-Aldrich) in a 0.9% sodium chloride solution (Sigma-Aldrich). Red blood cells were left to sediment for 35 minutes. The leukocyte rich upper layer was removed and layered over Ficoll-Paque (GE Healthcare) and centrifuged at 600 g for 30 minutes. The plasma and mononuclear cell layers were removed before the granulocyte layer was lysed with water to remove any contaminating red blood cells. […] Purity was analyzed using a LSRII flow cytometer (BD Biosciences). […]
After cytokine stimulation, cells were centrifuged at 300 g for 5 min and washed twice with cold DPBS (Life Technologies). To access viability and apoptosis, cells were incubated with Propidium Iodide (Thermo Fisher Scientific) and APC Annexin V (BD Biosciences) and analyzed using a LSRII flow cytometer (BD Biosciences). IC50 values were determined from analysis of the viability curves of percent cell viability vs compound concentration. Data are expressed as pIC50 (negative decadic logarithm IC50 ) values.

[3] = tested on: IL-6 stimulated STAT3 phosphorylation in CD3+ T cells; test: Inhibition of IL-6 stimulated pSTAT3 in CD3+ T cells; type: cell-based, human
Description: A protocol analogous to that of Assay 10 was used to determine the potency of the test compound for inhibition of interleuken-6 (IL-6) stimulated STAT3 phosphorylation. An Alexa Fluor 647 conjugated anti-pSTAT3 antibody (pY705, Clone 4/P, BD Biosciences) was used to detect STAT3 phosphorylation.

CCc1cc(O)c(F)cc1-c1ccc2c(-c3nc4c([nH]3)CN(C(C)C)[C@H](C(=O)N3CC(N(C)C)C3)C4)n[nH]c2c1 [Example 2, (S)-(3-(dimethylamino)azetidin-1-yl)(2-(6-(2-ethyl-5-fluoro-4-hydroxyphenyl)-1H-indazol-3-yl)-5-isopropyl-4,5,6,7-tetrahydro-3H-imidazo [4,5-c]pyridin-6-yl)methanone]
inhibition of anti-CD3 and IL-2 induced release of IFNγ from activated human peripheral blood-isolated T cells [1]: inhibit | inhibition of IL-5 mediated human eosinophil survival [2]: potently inhibit | inhibition of IL-6 signaling [3]: inhibit IL-6 signaling

— patent publication US11453668B2, “JAK inhibitors containing a 4-membered heterocyclic amide” (THERAVANCE BIOPHARMA R&D IP, LLC, priority 2017, dated 2022)
